Measurements: BigSolDB 2.1

CC[C@H](C)[C@H]1O[C@]2(C=C[C@@H]1C)C[C@@H]1C[C@@H](C/C=C(\C)[C@@H](O[C@H]3C[C@H](OC)[C@@H](O[C@H]4C[C@H](OC)[C@@H](O)[C@H](C)O4)[C@H](C)O3)[C@@H](C)/C=C/C=C3\CO[C@@H]4[C@H](O)C(C)=C[C@@H](C(=O)O1)[C@]34O)O2
solubility (mole fraction)
Conditions | 283.15 K | 288.15 K | 293.15 K | 298.15 K | 303.15 K | 308.15 K | 313.15 K
in acetone | 0.00916 | 0.0104 | 0.0119 | 0.0134 | 0.0151 | 0.0175 | 0.0194
in isopropanol | 0.00481 | 0.00589 | 0.0071 | 0.00804 | 0.0096 | 0.0113 | 0.0137
